This is an account of results in patent US4322496A, “Inhibition of lactate oxidase” (Eastman Kodak Company, priority 1980, dated 1982).

Assay [1] deals with T1, beef meat lactate dehydrogenase (Bos taurus, UniProt P19858).
T1 construct: beef meat lactate dehydrogenase; from tissue; host or cells: beef meat (skeletal muscle)
In words: LDH assay reaction mixture (pyruvate/NADH). As to conditions: acid 10 mM; pH 7.5. In kind it is biochemical. Here is the method:
The effect of these acids on LO was evaluated by studying an LO assay reaction mixture having the composition described above. The effect of these acids on LDH was evaluated by studying an LDH assay reaction mixture which contained in a total volume of 1.0 ml: 50 μmoles potassium phosphate buffer (pH 7.5); 1 μmole sodium pyruvate; 0.13 μmole NADH; 0.02 μg beef meat lactate dehydrogenase (320 U/mg) and the acid at a concentration of 10 mM. In the absence of acid, the rate of reaction was assumed to be 100% and the percent inhibition of each reaction was calculated accordingly.

For assay [2], the target named is T2, lactate oxidase activity in partially purified DL-α-glycerophosphate oxidase (Enterococcus casseliflavus, UniProt C9AC47).
T2 sequence (C9AC47 1-367): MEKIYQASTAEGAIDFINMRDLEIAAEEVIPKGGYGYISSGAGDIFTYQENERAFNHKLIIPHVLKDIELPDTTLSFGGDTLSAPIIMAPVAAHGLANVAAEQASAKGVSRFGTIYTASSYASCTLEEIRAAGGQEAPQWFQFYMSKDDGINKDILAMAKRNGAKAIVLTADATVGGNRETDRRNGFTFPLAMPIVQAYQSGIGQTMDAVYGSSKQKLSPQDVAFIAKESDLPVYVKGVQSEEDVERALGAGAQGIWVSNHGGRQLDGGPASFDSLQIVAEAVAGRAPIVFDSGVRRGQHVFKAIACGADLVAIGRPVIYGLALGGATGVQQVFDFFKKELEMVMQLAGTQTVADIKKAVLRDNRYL
In words: Lactate/serum blank reaction, solution mode. In kind it is biochemical. To be noted: 10 min, 37° C.; for Response to Normal Serum ΔA490: 20 μl normal serum. Here is the method:
Solution incubation mixtures contained in a total volume of 1.0 ml: 100 μmoles potassium phosphate buffer, pH 7.0, 0.12 mg 4-aminoantipyrene.HCl, 0.04 mg 1,7-dihydroxynaphthalene, 25 μg horseradish peroxidase (4.6 purpurogallin units), 0.36 units glycerol kinase, 4.6 units partially purified DL-α-glycerophosphate oxidase, and 10 mg Triton X-100. Reactions were initiated by addition of 20 μl of normal serum or 50 μl of 1 mM Dl-lactate, and after ten minutes at 37° C., the absorbance was measured at 490 nm. In each case, a reagent blank (all components except substrate) was subtracted to give the change in absorbance at 490 nm, ΔA490.

Assay [3] has as its system components of the triglyceride detection system. Briefly: Response of dry chemistry triglyceride test elements to test fluids. As to conditions: 81 or 405 mg/m^2 glycolate in element. Here is the method:
In the examples, non-fibrous, multilayer, "dry chemistry" analytical elements for determination of serum triglycerides were formulated having the following structure and composition: […]
The enzymatic reagent layer composition of the above-noted "dry chemistry" analytical element contained deionized gelatin (5.4 g/m^2); gel hardener (32.4 mg/m^2); poly(methyl acrylate-co-2-acrylamido-2-methylpropanesulfonic acid-co-2-acetoacetoxyethyl methacrylate) having a monomer weight ratio of (88.8:4.7:6.5) as peroxidase stabilizer (5.4 g/m^2); 0.05 M potassium phosphate buffer, pH 7.0; Triton X-100 surfactant (389 mg/m^2); 2-(3,5-dimethoxy-4-hydroxyphenyl)4,5-bis(4-dimethylaminophenyl)imidazole as a leuco dye (405 mg/m^2 dispersed in 2,4-di-n-amylphenol (4.05 g/m^2); antioxidant (324 mg/m^2); MgCl (103 mg/m^2); adenosinetriphosphate (1.35 g/m^2); peroxidase (7020 U/m^2); glycerol kinase (324 U/m^2); and either purified or partially purified L-α-glycerophosphate oxidase (2840 U/m^2). […]
Dry chemistry analytical elements (as described above) containing purified L-α-glycerophosphate oxidase and partially purified enzyme plus two different levels of glycolate were compared for response to serum triglycerides and glycerol. […] After a sevenminute incubation at 37° C., the reflection density, DR, at 540 nm was measured through the element support. […]

For orientation: inhibition means the relative decrease from the control value, in per cent. For the molecule `O=C(O)CO` [Glycolic Acid], the inhibition at 10000 µM in assay [1] was found to be 11%. Besides, the “Response to Normal Serum ΔA490” value in assay [2] (glycolate 1 mM) was 0.006; in assay [2] (glycolate 2 mM), 0; in assay [2] (glycolate 3 mM), 0. Moreover, the “Response to 50 μM DL-Lactate ΔA490” value in assay [2] (glycolate 1 mM) came to 0.008; in assay [2] (glycolate 2 mM) it was 0; in assay [2] (glycolate 3 mM), 0. In addition, the “inhibition of the components of the triglyceride detection system (in words)” value in assay [3] is on record as “did not inhibit any of the components of the triglyceride detection system”.
